Test results: US20220378801A1, “NOVEL COMPOUNDS” (AC Immune SA, priority 2019, published 2022)

How the values were obtained:
Format in all cases: cell-based
NLRP3 inflammasome [1] = biological target: T1, NLRP3 inflammasome (Homo sapiens, UniProt Q96P20); assay: NLRP3 inflammasome activation assay, IL-1 beta release, human monocyte-like cells, MSU stimulation; parameters: endogenous in cells; conditions: PMA-differentiated, LPS-primed human monocyte-like cells; MSU 150 μg/ml 3 h; IL-1β by AlphaLISA
T1 sequence (Q96P20 whole entry): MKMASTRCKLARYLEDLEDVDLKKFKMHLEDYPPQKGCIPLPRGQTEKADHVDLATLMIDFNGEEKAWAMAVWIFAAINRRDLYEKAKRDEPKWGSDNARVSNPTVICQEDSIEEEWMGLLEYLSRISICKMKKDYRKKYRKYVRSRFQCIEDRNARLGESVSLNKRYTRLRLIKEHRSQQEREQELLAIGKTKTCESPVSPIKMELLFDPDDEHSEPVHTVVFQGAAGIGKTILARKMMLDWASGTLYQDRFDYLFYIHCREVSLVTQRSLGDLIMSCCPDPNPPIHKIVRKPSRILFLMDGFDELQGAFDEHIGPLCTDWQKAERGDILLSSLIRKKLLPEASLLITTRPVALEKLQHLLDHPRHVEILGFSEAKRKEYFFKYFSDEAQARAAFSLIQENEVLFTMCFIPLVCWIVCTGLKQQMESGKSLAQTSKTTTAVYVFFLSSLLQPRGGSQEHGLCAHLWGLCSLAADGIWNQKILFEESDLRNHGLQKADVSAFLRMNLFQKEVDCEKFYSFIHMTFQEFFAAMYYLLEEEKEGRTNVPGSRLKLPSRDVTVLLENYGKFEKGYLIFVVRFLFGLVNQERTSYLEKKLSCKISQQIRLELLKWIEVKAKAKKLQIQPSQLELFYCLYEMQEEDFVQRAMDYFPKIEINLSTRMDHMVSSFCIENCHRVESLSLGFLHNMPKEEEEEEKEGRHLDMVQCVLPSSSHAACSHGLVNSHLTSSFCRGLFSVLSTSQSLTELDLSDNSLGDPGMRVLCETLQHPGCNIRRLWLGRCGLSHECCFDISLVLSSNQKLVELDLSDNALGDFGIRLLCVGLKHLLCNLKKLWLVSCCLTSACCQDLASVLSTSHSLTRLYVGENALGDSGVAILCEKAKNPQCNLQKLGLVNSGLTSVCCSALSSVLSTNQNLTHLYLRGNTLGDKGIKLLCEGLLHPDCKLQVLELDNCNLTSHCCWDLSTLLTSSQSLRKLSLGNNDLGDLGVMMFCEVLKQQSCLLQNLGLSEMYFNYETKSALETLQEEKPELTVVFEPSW
Method: (§1) The following assays can be used to determine the inhibitory activity of test compounds on the NLRP3 inflammasome using common stimuli nigericin (Invivogen) or monosodium urate crystals (MSU)(Invivogen).
(§2) Human monocyte-like cells are cultured in RPM11640 Glutamax medium supplemented with 10% heat inactivated FCS and 50 U/ml penicillin-streptomycin (Life Technologies). HMDM (Human Monocyte Derived Macrophage) are isolated from human blood with leucosep tubes and classical monocyte isolation kit from Miltenyi based on negative selection.
(§3) NLRP3 inflammasome activation assays Human monocyte-like cells are seeded at 75000 per well in a 96 well plate and differentiated overnight into macrophages with 10 ng/ml PMA (Phorbol Myristate Acetate). The following day, medium containing 10 ng/ml LPS (lipopolysaccharide) is added. After 3 h of LPS priming, concentrations of test compound in the range from 100 μM to 6 nM are added 30 min prior to NLRP3 inflammasome stimulation with Nigericin 3.75 μM or MSU 150 μg/ml for 3 h.
(§4) For IL-1β quantification, supernatants are analyzed using AlphaLISA kits according to the manufacturer's instructions (Perkin Elmer AlphaLISA AL220F).
(§5) IC50 (concentration corresponding to 50% inhibition) were determined using GraphPad Prism 8.

NLRP3 inflammasome [2] = biological target: T1, NLRP3 inflammasome; assay: NLRP3 inflammasome activation assay, IL-1 beta release, HMDM cells, Nigericin stimulation; conditions: LPS-primed primary human monocyte-derived macrophages; Nigericin 2.5 μM 3 h; IL-1β by AlphaLISA
Method: as §1, §2
(§6) Primary human monocyte-derived macrophages (HMDM) are seeded at 30000 per well in a 96 well plate and differentiated into macrophages with 10 ng/ml Human M-CSF (Macrophage Colony Stimulating Factor). At DIV 8 (Day in vitro) medium containing 10 ng/ml LPS is added. After 3 h of LPS priming, concentrations of test compound in the range from […] are added 30 min prior to NLRP3 inflammasome stimulation with Nigericin 2.5 μM or MSU 150 μg/ml for 3 h.
as §4, §5

NLRP3 inflammasome [3] = biological target: T1, NLRP3 inflammasome; assay: NLRP3 inflammasome activation assay, IL-1 beta release, human monocyte-like cells, Nigericin stimulation; parameters: endogenous in cells; conditions: PMA-differentiated, LPS-primed human monocyte-like cells; Nigericin 3.75 μM 3 h; IL-1β by AlphaLISA
Method: as §1, §2, §3, §4, §5

NLRP3 inflammasome [4] = biological target: T1, NLRP3 inflammasome; assay: NLRP3 inflammasome activation assay, IL-1 beta release, HMDM cells, MSU stimulation; conditions: LPS-primed primary human monocyte-derived macrophages; MSU 150 μg/ml 3 h; IL-1β by AlphaLISA
Method: as §1, §2, §6, §4, §5

IC50 (NLRP3 inflammasome [1])	IC50 (NLRP3 inflammasome [2])	IC50 (NLRP3 inflammasome [3])	IC50 (NLRP3 inflammasome [4])	SMILES
< 1000 nM	< 1000 nM	< 1000 nM	< 1000 nM	O=C(Nc1c2c(c(F)c3c1CCC3)CCC2)NS1(=O)=NC(=O)c2sccc21 (centres unmarked) [Example 19]
< 1000 nM	1000 to 10000 nM	1000 to 10000 nM	< 1000 nM	O=C(Nc1c2c(cc3c1CCC3)CCC2)NS1(=O)=NC(=O)c2ccccc2C1 (centres unmarked) [Example 3]
< 1000 nM	1000 to 10000 nM	< 1000 nM	< 1000 nM	O=C(N=S1(=O)NC(=O)c2ccc(Br)cc21)Nc1c2c(cc3c1CCC3)CCC2 (single isomer, unassigned) [Example 60]
< 1000 nM	–	1000 to 10000 nM	1000 to 10000 nM	O=C(Nc1c2c(cc3c1CCC3)CCC2)NS1(=O)=NC(=O)c2ccncc21 (centres unmarked) [Example 7]
< 1000 nM	1000 to 10000 nM	< 1000 nM	< 1000 nM	O=C(Nc1c2c(cc3c1CCC3)CCC2)NS1(=O)=NC(=O)c2sccc21 (centres unmarked) [Example 4]
1000 to 10000 nM	–	1000 to 10000 nM	1000 to 10000 nM	O=C(Nc1cc2c(c3c1CCC3)CCC2)NS1(=O)=NC(=O)c2ccccc21 (centres unmarked) [Example 6]
< 1000 nM	1000 to 10000 nM	1000 to 10000 nM	1000 to 10000 nM	Cc1cccc2c1C(=O)N=S2(=O)NC(=O)Nc1c2c(cc3c1CCC3)CCC2 (centres unmarked) [Example 14]
< 1000 nM	–	1000 to 10000 nM	–	O=C(Nc1c2c(cc3c1CCC3)CCC2)NS1(=O)=NC(=O)c2ccc(Cl)cc21 (single isomer, unassigned) [Example 45]
< 1000 nM	–	1000 to 10000 nM	–	O=C(N=S1(=O)NC(=O)c2ccc(C(F)(F)F)cc21)Nc1c2c(cc3c1CCC3)CCC2 (centres unmarked) [Example 27]
1000 to 10000 nM	–	1000 to 10000 nM	–	COc1cc(-c2ccc3c(c2NC(=O)NS2(=O)=NC(=O)c4sccc42)CCC3)ccn1 (single isomer, unassigned) [Example 52]
< 1000 nM	–	1000 to 10000 nM	–	O=C(Nc1c2c(cc3c1CCC3)CCC2)NS1(=O)=NC(=O)c2c(Cl)cccc21 (single isomer, unassigned) [Example 43]
< 1000 nM	–	1000 to 10000 nM	–	O=C(N=S1(=O)NC(=O)c2cccnc21)Nc1c2c(cc3c1CCC3)CCC2 (single isomer, unassigned) [Example 32]
< 1000 nM	< 1000 nM	< 1000 nM	< 1000 nM	O=C(Nc1c2c(c(F)c3c1CCC3)CCC2)NS1(=O)=NC(=O)c2sccc21 (single isomer, unassigned) [Example 55]
< 1000 nM	–	1000 to 10000 nM	–	Cc1cccc2c1C(=O)N=S2(=O)NC(=O)Nc1c2c(cc3c1CCC3)CCC2 (single isomer, unassigned) [Example 47]
< 1000 nM	–	< 1000 nM	–	COc1cc(-c2cc(F)cc(C(C)C)c2NC(=O)NS2(=O)=NC(=O)c3sccc32)ccn1 (single isomer, unassigned) [Example 51]
< 1000 nM	1000 to 10000 nM	< 1000 nM	–	O=C(Nc1c2c(cc3c1CCC3)CCC2)NS1(=O)=NC(=O)c2nc(Cl)ccc21 (single isomer, unassigned) [Example 64]
< 1000 nM	–	1000 to 10000 nM	–	Cc1cccc2c1C(=O)N=S2(=O)NC(=O)Nc1c2c(cc3c1CCC3)CCC2 (single isomer, unassigned) [Example 46]
< 1000 nM	–	1000 to 10000 nM	1000 to 10000 nM	O=C(Nc1c2c(cc3c1CCC3)CCC2)NS1(=O)=NC(=O)c2sccc21 (single isomer, unassigned) [Example 35]
< 1000 nM	–	1000 to 10000 nM	1000 to 10000 nM	O=C(Nc1c2c(cc3c1CCC3)CCC2)NS1(=O)=NC(=O)c2ccc(F)cc21 (single isomer, unassigned) [Example 63]
1000 to 10000 nM	–	1000 to 10000 nM	–	COC(=O)c1ccc2c(c1)S(=O)(=NC(=O)Nc1c3c(cc4c1CCC4)CCC3)NC2=O (centres unmarked) [Example 9]
< 1000 nM	–	< 1000 nM	–	COc1cc(-c2ccc3c(c2NC(=O)NS2(=O)=NC(=O)c4sccc42)CCC3)ccn1 (single isomer, unassigned) [Example 53]
1000 to 10000 nM	–	1000 to 10000 nM	–	O=C(Nc1c2c(cc3c1CCC3)CCC2)NS1(=O)=NC(=O)c2ncccc21 (single isomer, unassigned) [Example 39]
< 1000 nM	–	1000 to 10000 nM	–	O=C(Nc1c2c(cc3c1CCC3)CCC2)NS1(=O)=NC(=O)c2cc(Br)ccc21 (centres unmarked) [Example 23]

IC50 (NLRP3 inflammasome [1])	IC50 (NLRP3 inflammasome [2])	IC50 (NLRP3 inflammasome [3])	IC50 (NLRP3 inflammasome [4])	SMILES
1000 to 10000 nM	–	1000 to 10000 nM	–	O=C(Nc1c2c(cc3c1CCC3)CCC2)NS1(=O)=NC(=O)c2cc(Br)ccc21 (single isomer, unassigned) [Example 59]
< 1000 nM	–	1000 to 10000 nM	–	O=C(Nc1c2c(cc3c1CCC3)CCC2)NS1(=O)=NC(=O)c2ccncc21 (single isomer, unassigned) [Example 38]
< 1000 nM	–	1000 to 10000 nM	–	N#Cc1ccc2c(c1)C(=O)N=S2(=O)NC(=O)Nc1c2c(cc3c1CCC3)CCC2 (centres unmarked) [Example 10]
1000 to 10000 nM	–	1000 to 10000 nM	–	COc1cc(-c2cc(F)cc(C(C)C)c2NC(=O)NS2(=O)=NC(=O)c3sccc32)ccn1 (single isomer, unassigned) [Example 50]
< 1000 nM	–	1000 to 10000 nM	< 1000 nM	O=C(Nc1c2c(cc3c1CCC3)CCC2)NS1(=O)=NC(=O)c2c(F)cccc21 (centres unmarked) [Example 25]
< 1000 nM	–	1000 to 10000 nM	1000 to 10000 nM	O=C(N=S1(=O)NC(=O)c2cccnc21)Nc1c2c(cc3c1CCC3)CCC2 (centres unmarked) [Example 2]
< 1000 nM	–	1000 to 10000 nM	–	O=C(Nc1c2c(cc3c1CCC3)CCC2)NS1(=O)=NC(=O)c2cc(Cl)ccc21 (single isomer, unassigned) [Example 44]
< 1000 nM	–	< 1000 nM	–	COc1cc(-c2cc(F)cc(C(C)C)c2NC(=O)NS2(=O)=NC(=O)c3sccc32)ccn1 (centres unmarked) [Example 17]
< 1000 nM	–	1000 to 10000 nM	–	O=C(Nc1c2c(cc3c1CCC3)CCC2)NS1(=O)=NC(=O)c2ccc(Cl)cc21 (centres unmarked) [Example 13]
< 1000 nM	–	1000 to 10000 nM	–	CC(C)c1ccc2c(c1NC(=O)NS1(=O)=NC(=O)c3sccc31)CCO2 (single isomer, unassigned) [Example 49]
< 1000 nM	–	1000 to 10000 nM	–	O=C(Nc1c2c(cc3c1CCC3)CCC2)NS1(=O)=NC(=O)c2cc(Br)ccc21 (single isomer, unassigned) [Example 58]
< 1000 nM	–	1000 to 10000 nM	–	O=C(Nc1c2c(cc3c1CCC3)CCC2)NS1(=O)=NC(=O)c2ccc(F)cc21 (centres unmarked) [Example 28]
1000 to 10000 nM	–	1000 to 10000 nM	–	O=C(Nc1c2c(cc3c1CCC3)CCC2)NS1(=O)=NC(=O)c2ncccc21 (centres unmarked) [Example 8]
< 1000 nM	–	< 1000 nM	–	COc1ccc2c(c1)S(=O)(NC(=O)Nc1c3c(cc4c1CCC4)CCC3)=NC2=O (centres unmarked) [Example 15]
< 1000 nM	–	1000 to 10000 nM	–	O=C(Nc1c2c(cc3c1CCC3)CCC2)NS1(=O)=NC(=O)c2ccccc2C1 (single isomer, unassigned) [Example 33]
< 1000 nM	–	1000 to 10000 nM	1000 to 10000 nM	CC(C)(O)c1ccc2c(c1)S(=O)(=NC(=O)Nc1c3c(cc4c1CCC4)CCC3)NC2=O (single isomer, unassigned) [Example 40]
< 1000 nM	–	1000 to 10000 nM	< 1000 nM	O=C(Nc1c2c(cc3c1CCC3)CCC2)NS1(=O)=NC(=O)c2cc(F)ccc21 (centres unmarked) [Example 26]
< 1000 nM	–	1000 to 10000 nM	1000 to 10000 nM	O=C(N=S1(=O)NC(=O)c2ccc(Br)cc21)Nc1c2c(cc3c1CCC3)CCC2 (centres unmarked) [Example 24]
< 1000 nM	–	1000 to 10000 nM	–	O=C(Nc1c2c(cc3c1CCC3)CCC2)NS1(=O)=NC(=O)c2c(F)cccc21 (single isomer, unassigned) [Example 61]
< 1000 nM	–	1000 to 10000 nM	1000 to 10000 nM	O=C(Nc1c2c(c(F)c3c1CCC3)CCC2)NS1(=O)=NC(=O)c2sccc21 (single isomer, unassigned) [Example 54]
1000 to 10000 nM	–	10000 to 30000 nM	–	O=C(Nc1c(Br)ccc2c1CCO2)NS1(=O)=NC(=O)c2sccc21 (single isomer, unassigned) [Example 56]
1000 to 10000 nM	–	1000 to 10000 nM	1000 to 10000 nM	O=C(Nc1c2c(cc3c1CCC3)CCC2)NS1(=O)=NC(=O)c2cc(Cl)ccc21 (centres unmarked) [Example 12]
< 1000 nM	–	1000 to 10000 nM	–	COc1ccc2c(c1)C(=O)N=S2(=O)NC(=O)Nc1c2c(cc3c1CCC3)CCC2 (centres unmarked) [Example 22]
